The values below come from US20240199624A1, “COMPOUNDS, COMPOSITIONS, AND METHODS” (CHDI Foundation, Inc., priority 2022, published 2024).

The target in one assay is T1, MSH3 (human MutSbeta) (Homo sapiens, UniProt P20585).
T1 construct: Msh3(1-1137), Gene ID J04810.1
In words: ATP binding and cross-linking assay (MSH3 subunit). The note with it: [32P]-ATP UV cross-linking to MSH3 subunit of MutSbeta; read-out: cross-link assay IC50 MSH3. As to the method: (§1) ATP binding and cross-linking assay: Enzyme human MutSbeta (Msh2(1-934), Gene ID NP_000242.1, Msh3(1-1137), Gene ID J04810.1) was adjusted to 0.2 μM and, in experiments in the presence of 22 bp biotin-labeled DNA containing a GT-mismatch (purchased from Curia Global, TOP 5′-[…]-3′; BOT 3′-AGTAGCTAGGC - - - CGAAGTCTACC-5′-Biotin), pre-incubated with DNA at equimolar concentration for indicated time and temperature. All reagents were kept on ice. Enzyme was then incubated on ice for the indicated time with 5 nM γ-[^32P]-ATP (Hartmann Analytic, FP-301) or α-[^32P]-ATP (Perkin Elmer, NEG003H250UCSBF4 or Hartmann Analytic, FP-207) and addition of cold ATP (10 μM) or ADP (0.3 μM). The total volume was 20 μL and the samples were handled in Eppendorf reaction tubes. The assay buffer was 25 mM HEPES pH=7.5, 150 mM KCl, 5 mM MgCl2, 5 mM GSH, 0.01% Tween-20. All steps with radioactive ATP were conducted behind appropriate shielding. The samples were then placed on dry ice until they were frozen solid. […] The screen was analyzed in the imager (GE Healthcare, Fluorescent Image Analyzer, Typhoon FLA 7000, #5622514B), and the image was analyzed with imageJ software.

A short description of assay [1]: P33 SPA counter assay (absence of enzyme). The note with it: interference with detection system. The procedure: P33 SPA counter assay: This assay was used in the absence of enzyme to determine whether the test compound interferes with the detection system. Otherwise, the same protocol and assay buffer as in the main SPA assay were applied (25 mM HEPES pH=7.5, 150 mM KCl, 2 mM MgCl2, 2 mM GSH, 0.01% Tween-20) and instead of enzyme addition, assay buffer was added. Hydrolysis of substrate (γ-[^33P]-ATP, 0.1 nM; Hartmann Analytic, FF-301; and cold ATP, 10 μM) to a similar level as under enzymatic conditions was achieved by incubation at 50° C. for 4 days. Decay of [^33P] with a half-life of 25.4 days was corrected by increasing the concentration of the labelled nucleotide with the appropriate factor; all steps with radioactive ATP were conducted behind appropriate shielding. After addition of pre-treated ATP substrate (10 μL) to the compounds and addition of buffer (10 μL, instead of enzyme), 20 μL of a 1:2 mix of ammonium molybdate (20 mg/mL Ammonium molybdate in 2.4M HCl) and SPA beads (ProteinA SPA beads from Perkin Elmer Cat #RPNQ0019 at 7.5 mg/mL+1% azide) was added per well and incubated at RT for 2 min. Then, 40 μL of 7 M CsCl and 0.1 M citrate was added per well and incubated for 1 h at room temperature before measuring on the MicroBeta (top read mode, 1 min per well). For full plate processing, all reagents were transferred with a pipettor (Selma, CyBio) apart from the final reagent (CsCl+citrate) which was added with a dispenser (MultiFlo, BioTek). Data analysis during assay development was done with Prism GraphPad, and IC50 fitting for whole compound plates was done with the in-house software Aplus.

The target in the next assay is T2, MSH2 (human MutSbeta) (Homo sapiens, UniProt P43246).
T2 construct: Msh2(1-934), Gene ID NP_000242.1
In words: ATP binding and cross-linking assay (MSH2 subunit). The following applies: [32P]-ATP UV cross-linking to MSH2 subunit of MutSbeta; read-out: cross-link assay IC50 MSH2. As to the method:
as §1

For another assay, the target named is T3, human MutSbeta (Homo sapiens, UniProt P20585+P43246).
T3 construct: Msh2(1-934), Gene ID NP_000242.1; Msh3(1-1137), Gene ID J04810.1
Nature of the assay: ADP Glo assay 2.1. The following applies: 10 μM ATP, 7 nM enzyme; buffer with 5 mM GSH, 0.2% Ovalbumin. Type of assay: biochemical. As to the method:
ADP Glo assay 2.1: Enzyme human MutSbeta (Msh2(1-934), Gene ID NP_000242.1, Msh3(1-1137), Gene ID J04810.1) with 22 bp biotin-labeled DNA containing a GT-mismatch (purchased from Curia Global, TOP 5′-[…]-3′; BOT 3′-AGTAGCTAGGC - - - CGAAGTCTACC-5′-Biotin) was pre-incubated in assay buffer (25 mM HEPES pH=7.5, 150 mM KCl, 5 mM MgCl2, 5 mM GSH, 0.1% Pluronic F-127, 0.2% Ovalbumin) to allow formation of the enzyme-DNA complex. Plates with spotted compounds in serial dilutions in DMSO (80 nL) were filled with ATP (2 μL, 10 μM final concentration) followed by an incubation of 30 min at RT. Then, enzyme was added (2 μL, 7 nM final concentration) and the reaction was allowed to proceed for 60 min at 37° C. After the ATPase reaction, the commercially available “ADP-Glo Reagent” was added (incubate 40 min at RT) to deplete remaining ATP via the activity of […]. Subsequently, the commercially available “Kinase Detection Reagent” converted ADP to ATP via the activity of PEP and Pyruvate kinase. The ATP was then converted into light by Ultra-Glo Luciferase. The obtained luminescence was proportional to the ADP concentration generated during the initial ATPase reaction. The luminescence signal was measured with an Envision reader, raw data were analyzed towards controls (full reaction=0% inhibition; no reaction in absence of enzyme=100% inhibition) and IC50 curves were analyzed with the inhouse software Aplus.
For orientation: ADP-Glo first removes unused ATP, then detects ADP through luciferase.

By IC50 is commonly meant the concentration that inhibits the measured activity by half.

T1 sequence (P20585 whole entry): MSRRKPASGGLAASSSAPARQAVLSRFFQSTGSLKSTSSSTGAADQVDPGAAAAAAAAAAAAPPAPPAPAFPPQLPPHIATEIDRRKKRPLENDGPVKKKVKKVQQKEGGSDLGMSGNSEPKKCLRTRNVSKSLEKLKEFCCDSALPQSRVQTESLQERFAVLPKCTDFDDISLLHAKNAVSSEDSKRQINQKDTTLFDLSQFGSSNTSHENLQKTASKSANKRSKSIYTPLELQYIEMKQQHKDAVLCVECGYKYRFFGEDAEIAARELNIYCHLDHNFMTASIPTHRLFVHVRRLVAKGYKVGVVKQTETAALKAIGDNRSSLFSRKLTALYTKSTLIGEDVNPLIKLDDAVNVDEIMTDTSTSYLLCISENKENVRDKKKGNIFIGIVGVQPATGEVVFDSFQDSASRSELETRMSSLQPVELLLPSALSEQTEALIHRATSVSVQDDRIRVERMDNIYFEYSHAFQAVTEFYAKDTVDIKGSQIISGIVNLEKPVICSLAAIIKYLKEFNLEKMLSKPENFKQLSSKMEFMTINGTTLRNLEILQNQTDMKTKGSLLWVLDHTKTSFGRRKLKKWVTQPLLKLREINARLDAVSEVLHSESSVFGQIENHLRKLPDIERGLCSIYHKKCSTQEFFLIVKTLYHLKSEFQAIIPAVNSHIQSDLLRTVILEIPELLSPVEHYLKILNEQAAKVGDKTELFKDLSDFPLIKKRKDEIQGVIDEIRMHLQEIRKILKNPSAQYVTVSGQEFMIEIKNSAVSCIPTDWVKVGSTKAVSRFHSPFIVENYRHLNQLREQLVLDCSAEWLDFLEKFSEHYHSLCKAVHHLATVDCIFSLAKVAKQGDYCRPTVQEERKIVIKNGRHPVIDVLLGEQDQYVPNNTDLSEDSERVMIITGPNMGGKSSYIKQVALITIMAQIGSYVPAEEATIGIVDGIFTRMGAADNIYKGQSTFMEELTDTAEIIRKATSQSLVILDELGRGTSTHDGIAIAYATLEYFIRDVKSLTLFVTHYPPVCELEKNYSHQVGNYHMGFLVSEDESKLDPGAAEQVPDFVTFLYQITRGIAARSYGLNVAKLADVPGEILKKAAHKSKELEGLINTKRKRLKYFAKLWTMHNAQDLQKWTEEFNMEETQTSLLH
T1 sequence (P43246 whole entry partner): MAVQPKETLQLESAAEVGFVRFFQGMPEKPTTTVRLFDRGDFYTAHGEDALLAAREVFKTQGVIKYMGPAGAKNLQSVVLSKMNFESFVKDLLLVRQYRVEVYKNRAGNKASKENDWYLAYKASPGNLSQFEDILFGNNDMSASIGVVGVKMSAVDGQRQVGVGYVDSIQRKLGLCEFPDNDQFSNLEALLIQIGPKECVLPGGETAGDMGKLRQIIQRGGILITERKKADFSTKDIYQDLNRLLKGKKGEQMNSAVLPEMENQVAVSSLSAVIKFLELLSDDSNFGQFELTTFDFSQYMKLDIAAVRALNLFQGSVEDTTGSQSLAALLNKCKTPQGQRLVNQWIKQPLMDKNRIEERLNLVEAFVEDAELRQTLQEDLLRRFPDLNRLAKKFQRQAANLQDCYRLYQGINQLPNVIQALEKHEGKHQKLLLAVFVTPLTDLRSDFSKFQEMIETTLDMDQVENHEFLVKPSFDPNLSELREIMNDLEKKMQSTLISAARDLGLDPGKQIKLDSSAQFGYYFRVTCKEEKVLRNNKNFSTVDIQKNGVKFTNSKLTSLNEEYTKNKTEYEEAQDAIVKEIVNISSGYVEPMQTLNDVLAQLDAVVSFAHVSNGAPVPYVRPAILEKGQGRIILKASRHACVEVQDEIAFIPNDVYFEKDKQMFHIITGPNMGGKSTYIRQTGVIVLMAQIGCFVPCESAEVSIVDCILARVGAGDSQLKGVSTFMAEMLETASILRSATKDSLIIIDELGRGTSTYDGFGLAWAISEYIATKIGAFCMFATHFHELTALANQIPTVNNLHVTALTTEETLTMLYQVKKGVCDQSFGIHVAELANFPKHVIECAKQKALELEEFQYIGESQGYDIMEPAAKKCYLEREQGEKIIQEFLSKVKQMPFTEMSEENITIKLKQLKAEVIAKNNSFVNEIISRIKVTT
T3 sequence (P43246 whole entry): as the sequence (P43246 whole entry partner) above
T3 sequence (P20585 whole entry): as the sequence (P20585 whole entry) above
T2 sequence (P43246 whole entry): as the sequence (P43246 whole entry partner) above
T2 sequence (P20585 whole entry partner): as the sequence (P20585 whole entry) above

In the case of `Cc1ccc(Nc2nc(N3CCN(C)CC3)nc3nccnc23)cc1C` [Compound 2, N-(3,4-dimethylphenyl)-2-(4-methylpiperazin-1-yl)pteridin-4-amine], the IC50 on MSH3 (human MutSbeta) is 5 µM; in assay [1] it was greater than 200 µM; on MSH2 (human MutSbeta), 120 µM; at human MutSbeta it was 67.3 µM.

Take `CCN1CCN(c2nc(Nc3ccc(Cl)cc3)c3nccnc3n2)CC1` [Compound 4, N-(4-Chlorophenyl)-2-(4-ethylpiperazin-1-yl)pteridin-4-amine]: the IC50 on MSH3 (human MutSbeta) is 9 µM; in assay [1] it was greater than 200 µM; on MSH2 (human MutSbeta), 215 µM; on human MutSbeta it was 152 µM.
